From US7148204B2, “Antisense modulation of bcl-x expression” (Isis Pharmaceuticala, Inc., priority 1998, dated 2006) come the findings set out here.

The subject of the series is bcl-x. The series can be described thus: bcl-x protein in SEM-K2 cells by flow cytometry. The class given is cell-based, human. Conditions: 10 μM without cationic lipid, 48 hours after initial treatment. The method, then:
SEM-K2 is a human cell line derived from a patient suffering from a t(4;11) acute lymphoblastic leukemia. Pocock, C. F. E. et al., Br. J. Haematol. (1995), 90(4), 855–67. SEM-K2 cells in exponential phase of growth were maintained in […] medium (Life Technologies, Inc., Gaithersburg, Md.) supplemented with 10% fetal bovine serum, 2 mM glutamine and penicillin/streptomycin, at 37°C. in 5%CO2/95% air. Cells were transferred in 1 mL volumes at approximately 1–5×10^6 cells/ml to 24-well plates. After one hour, 10 μM of ISIS 15999 or scrambled control 15691 ([…]; SEQ ID No. 41) was added to wells, without cationic lipid. At 24 hours and 48 hours repeat doses of 5 μM oligonucleotide were added. […]
For Western blot and flow cytometric protein analysis, cells were washed once in phosphate-buffered saline and pelleted by centrifugation at 1200 rpm for 5 minutes, and resuspended in cell lysis buffer (5M NaCl, 0.1 M HEPES, 500 mM sucrose, 0.5M EDTA, 100 mM spermine, 1 mg/ml aprotinin, 10% Triton X-100) for 15 minutes on ice. Total protein was quantified spectrophotometrically (BioRad) and 100 μg lysate was loaded onto 15% polyacrylamide gels and run at 200V for 45 minutes. […] Cells were analyzed using a FACScalibur™ running Cellquest software (Becton Dickinson, Franklin Lakes, N.J.). […] Fluorescence detector 1 was used with logarithmic amplification for detection of FITC fluorescence. […]

“TCCCGGTTGCTCTGAGACAT (5-10-5 2'-MOE gapmer, phosphorothioate, further chemistry not given here) [ISIS 15999]”: the “reduction in bcl-x (median fluorescence intensity)” value amounted to 50%.
